Measurements as given in publication PMC3744530, “CTA095, a Novel Etk and Src Dual Inhibitor, Induces Apoptosis in Prostate Cancer Cells and Overcomes Resistance to Src Inhibitors” (PLoS ONE, 2013).
pIC50: −log10 of the molar value.

Legend:
CWR22Rv1 cells = assay: MTT growth inhibition assay; format: cell-based; conditions: Homo sapiens, 72 h
Description: (§1) Cells were seeded in 96-well plates and cultured overnight, followed by treatment with 0.1% DMSO, as the vehicle control, and CTA095, at the indicated concentrations for 72 h. Growth inhibition was measured using a 3-(4,5-Dimethylthiazol-2-yl)-2,5-diphenyltetrazolium bromide (MTT) assay (Roche Diagnostic, Mannheim, Germany).
(§2) Figure 5 Growth Inhibition of CTA095 to LNCAP, CWR22Rv1, PC3 prostate cancer and normal prostate (RWPE1) cells. Cells were seeded at 5,000 cells/well in 96-well plate overnight and treated with CTA095 at the indicated concentrations. The cell viability was measured using MTT assay after 72 h. dots, mean; bars, standard deviation, n = 3.

LNCAP cells = assay: MTT growth inhibition assay; format: cell-based; conditions: Homo sapiens, 72 h
Description: as §1, §2

RWPE1 cells = assay: MTT growth inhibition assay; format: cell-based; conditions: Homo sapiens, RWPE-1, RWPE1 normal prostate cells, 72 h
Description: as §1, §2

PC3 cells [1] = assay: MTT growth inhibition assay; format: cell-based, human
Description: as §1, §2
Figure 9 CTA095 as a chemo sensitizer. Growth Inhibition of CTA095 and in combination with 10 μM chloroquine (CQ), or 2 ng/ml paclitaxel (PTX) to PC3 human prostate cancer cells. Cells were seeded at 5,000 cells/well in 96-well plate overnight and pretreated with the corresponding co-treatments for 1h, then treated with 2.5 μM CTA095. The cell viability was measured using MTT assay after 72 h. Columns, mean; bars, standard deviation, n = 3.

PC3 cells [2] = assay: Flow cytometry: PI staining and Annexin V-FITC apoptosis; format: cell-based, human; conditions: PC3, 24 h
Description: PC3 cells were treated with 0.1% DMSO (control) and CTA095 at the indicated concentrations for 24 h. Cell cycle arrest was determined by the incorporation of propidium iodide (Sigma-Aldrich) into permeabilized cells. Cells undergoing apoptosis were identified using an Annexin V-FITC kit (Abcam), following the manufacturer's instructions. The cells were analyzed using a Coulter Epics XL flow cytometer (Beckman Coulter, Miami, FL).
Figure 7 Induction of apoptosis of PC3 cells following treatment with CTA095. PC3 cells were seeded at 10^6 cells/ml (2 ml) in a 6-well plate overnight and then treated with CTA095 at the indicated concentrations for 24 h. Cell cycle arrest was analyzed using PI staining (A). Apoptosis was analyzed using Annexin-V FITC apoptosis detection kit (B). Caspase 9 activation was measured using western blot (D). For caspase 3/7 activity, PC3 cells were seeded at 5000 cells/well in 96 well plate overnight and treated with CTA095 at 0–10 μM for 24 h. Caspase-3/7 activities were measured using the Apo-ONE Homogeneous Caspase-3/7 Assay kit (Promega, Madison, WI) according to the manufacturer's instruction. Columns, mean; bars, standard deviation, n = 3. […] TEXT PRINTED IN THE PICTURE: (A) CTA095: 4.3% (0 μM); 6.9% (5 μM); 44.0% (10 μM) DOUBTS OF THE COPYIST ABOUT THIS PICTURE: Panel A prints no substance label. […]

caspase3/7 in PC3 cells = assay: Caspase-3/7 activity (Apo-ONE Homogeneous assay); format: cell-based, human; conditions: PC3, 0–10 μM, 24 h
Description: For caspase 3/7 activities, PC3 cells were seeded at 5,000 cells/well in 96-well plate overnight. Then the cells were treated with 0–10 μM CTA095 for 24 h. Caspase-3/7 activities were measured using the Apo-ONE Homogeneous Caspase-3/7 Assay kit (Promega, Madison, WI) according to the manufacturer's instruction. For caspase 9 activity, PC3 cells were seeded in 10 mm tissue culture plate and grew to 50% confluence. Cells were then treated with 0–10 μM CTA095 for 24 h. Cells were harvested and caspase 9 activity was measured using a Western blot with an anti-caspase 9 antibody.
Figure 7 Induction of apoptosis of PC3 cells following treatment with CTA095. PC3 cells were seeded at 10^6 cells/ml (2 ml) in a 6-well plate overnight and then treated with CTA095 at the indicated concentrations for 24 h. Cell cycle arrest was analyzed using PI staining (A). Apoptosis was analyzed using Annexin-V FITC apoptosis detection kit (B). Caspase 9 activation was measured using western blot (D). For caspase 3/7 activity, PC3 cells were seeded at 5000 cells/well in 96 well plate overnight and treated with CTA095 at 0–10 μM for 24 h. Caspase-3/7 activities were measured using the Apo-ONE Homogeneous Caspase-3/7 Assay kit (Promega, Madison, WI) according to the manufacturer's instruction. Columns, mean; bars, standard deviation, n = 3. […]

293 cells (Etk negative) = assay: Annexin V-FITC apoptosis in 293 cells; format: cell-based; conditions: 24 h
Description: Supplementary file pone.0070910.s005.tif: Figure S5 Induction of apoptosis of 293 cells following treatment with CTA095. 293 cells were seeded at 10^6 cells/ml (2 ml) in a 6-well plate overnight and then treated with CTA095 at the indicated concentrations for 24 h. Apoptosis was analyzed using Annexin-V FITC apoptosis detection kit. Columns, mean; bars, standard deviation, n = 3. (TIF) Click here for additional data file.

[3] = system: PC3 cells stably transfected with GFP-LC3; assay: Autophagy assay (GFP-LC3 puncta, LC3 immunoblot); format: cell-based, human; conditions: PC3 GFP-LC3, 5 μM, 24 h
Description: PC3 cells were stably transfected with GFP-LC3 [16]. Cells were grown in a 6-well plate to 50% confluence and treated with 5 μM CTA095 for 24 h. Autophagy was visualized by GFP-LC3 “puncta” and immunoblot of Endogenous LC3 isoforms.
Figure 6 Induction of autophagy in PC3 cells by CTA095. Cells were grown in 6-well plate to 50% confluence and treated with CTA095. Autophagy was visualized by GFP-LC3 “puncta” (A) and immunoblot of Endogenous LC3 isoforms (B). All experiments were carried out 24 h after treatment.

PC3-AZD20 cells = assay: MTT cell viability in Src inhibitor resistant cells; format: cell-based, human; conditions: 72 h
Description: PC3 and PC3-AZD20 (PC3 cell resistant to 20 μM AZD0530, which is from AstraZeneca through MTA with Dr. Chris Evans) cells were seeded at 2000 cells/well in 96 well plates overnight. The cells were treated with AZD0530 or CTA095 at the indicated concentrations. Cell viability was measured using an MTT assay after 72 h.
Figure 11 CTA095 overcomes Src inhibitor resistance in prostate cancer cells. PC3 and PC3-AZD20 (PC3 cell resistant to 20 μM AZD0530) cells were seeded at 2000 cells/well in 96 well plates overnight. The cells were treated with AZD0530 or CTA095 at the indicated concentrations. Cell viability was measured using MTT assay after 72 h. Symbols, mean; bars, standard deviation, n = 3.

Solubility in water = format: physicochemical

- pIC50 (LNCAP cells): 5.42
- pIC50 (PC3 cells [1]; Homo sapiens, PC-3, PC3, MTT, 72 h): 5.35
- solubility in water (Solubility in water): highly insoluble in water
SMILES: O=c1[nH]c2cc3nc(-c4ccc5oc6ccccc6c5c4)n(CCCN4CCCCC4)c3cc2nc1-c1ccccc1 [CTA095, 2-(dibenzo[b,d]furan-2-yl)-7-phenyl-1-(3-(piperidin-1-yl)propyl)-1H-imidazo[4,5-g]quinoxalin-6(5H)-one]
- pIC50 (CWR22Rv1 cells): 5.38
- pIC50 (RWPE1 cells): 5.10
- growth inhibition in combination with chloroquine (CQ) (PC3 cells [1]; PC3, 2.5 μM CTA095 + CQ 10 μM, MTT, 72 h): synergistic effect
- growth inhibition in combination with paclitaxel (PTX) (PC3 cells [1]; PC3, 2.5 μM CTA095 + PTX 2 ng/ml, MTT, 72 h): synergistic effect
- combination with autophagy inducer RPM (PC3 cells [1]; prostate cancer cells, co-treatment with rapamycin (RPM)): synergizes
- apoptosis (Annexin-V reactivity) (PC3 cells [2]): dose-dependent increase of apoptosis
- activation of caspase3/7 (caspase3/7 in PC3 cells): dose dependent activation
- induction of apoptosis (293 cells (Etk negative)): resistant to induce apoptosis
- autophagy (GFP-LC3 puncta) [3]: extensive distinct “puncta” autophagosome morphology
- IC50 in PC3-AZD20 cells (PC3-AZD20 cells): almost identical to that of the parental PC3 cells
- cell viability / sensitivity of PC3-AZD20 cells (PC3-AZD20 cells): highly sensitive
